Drawing on ChEMBL document CHEMBL1135156, “Synthesis of novel furo, thieno, and benzazetoazepines and evaluation of their cytotoxicity” (Bioorg Med Chem Lett, 2002), this text covers IC50 for five compounds.

pIC50: −log10 of the molar value. Bounds are passed on as bounds.

The test system of one experiment is MCF7. The experiment can be described thus: Inhibitory activity against MCF-7 breast cell line using sulforhodamine B (SRB) protein assay. In kind it is functional, cell-based. The following applies: Homo sapiens.
Another experiment relates to PC-3. The experiment is described as follows: Inhibitory activity against PC-3 prostate cell line using sulforhodamine B (SRB) protein assay. The conditions noted are these: Homo sapiens. Format: functional, cell-based.
The next experiment relates to U-251. The experiment can be described thus: Inhibitory activity against U251 CNS cell line using sulforhodamine B (SRB) protein assay. In kind it is functional, cell-based. The conditions noted are these: Homo sapiens.
Another experiment concerns K562. The experiment is described as follows: Iinhibitory activity against K562 leukemia cell line using sulforhodamine B (SRB) protein assay. The following applies: Homo sapiens. In kind it is functional, cell-based.
The next experiment has as its system HCT-15 (Homo sapiens). The experiment is described as follows: Inhibitory activity against HCT-15 colon cell line using sulforhodamine B (SRB) protein assay.
The next experiment relates to HCT-15. The experiment can be described thus: Inhibitory activity against HCT-15 colon cell line using sulforhodamine B (SRB) protein assay. In kind it is functional, cell-based. The conditions noted are these: Homo sapiens.

For `COc1cccc2c1CCCN1C(=O)[C@@H](Oc3ccccc3)[C@]21SC`, the pIC50 was 4.48 in the experiment with MCF7; 4.68 with PC-3; 4.60 in the experiment on U-251; 4.64 in the experiment with K562; 4.72 in the experiment on HCT-15 (Homo sapiens).

For `CS[C@@]12c3cc(C)n(-c4ccc(I)cc4)c3CC(C)(C)CN1C(=O)[C@H]2Oc1ccccc1`, the pIC50 was under 4.00 in the experiment on HCT-15; under 4.00 in the experiment on MCF7; 4.06 with PC-3; 4.40 in the experiment with U-251; under 4.00 with K562.

As to `CS[C@@]12c3cc(C)oc3CC(C)(C)CN1C(=O)[C@H]2Oc1ccccc1`, the pIC50 in the experiment with HCT-15 was 4.25; with MCF7, 4.33; with PC-3, 4.28; with U-251, 4.33; in the experiment with K562 it was 4.51.

In the case of `CS[C@@]12c3cc(C)sc3CC(C)(C)CN1C(=O)[C@H]2Oc1ccccc1`, the pIC50 is 4.59 in the experiment on HCT-15; 4.39 in the experiment on MCF7; 4.96 in the experiment on PC-3; 4.48 with U-251; 4.41 in the experiment on K562.

For `COc1cccc2c1C(=O)c1c(O)c3c(c(O)c1C2=O)C[C@@](O)(C(=O)CO)C[C@@H]3O[C@H]1C[C@H](N)[C@H](O)[C@H](C)O1` [DOXORUBICIN], the pIC50 in the experiment on HCT-15 was 6.64; in the experiment with PC-3, 4.49; in the experiment with U-251, 7.05; in the experiment on K562 it was 6.55.
